According to article PMC5465999, “Design of new acid-activated cell-penetrating peptides for tumor drug delivery” (PeerJ, 2017):
Where a SMILES comes first, the peptide text is derived from it. [ ]: non-standard residue; d: D form. Aib = CC(C)(N)C(=O)O

How the values were obtained:
HeLa cells [1] = settings: 2 h incubation, n = 3; for LDH levels with decreasing pH: pH 7.4, 6.5, 6.0
Experimental: Membrane integrity was evaluated using the CytoTox-ONE assay. Cells were seeded at 1 ×10^4cells/well in a 96-well plate 24 h before treatment. After 2 h incubation with 100 µL serum-free medium, adjusted to pH 7.4, 6.5 or 6.0 and containing various concentrations of peptides, 40 µL of medium was transferred to a black fluorescence plate and incubated for 10 min with 40 µL of CytoTox-ONE reagent, followed by 20 µL of stop solution. Fluorescence was recorded with an excitation wavelength of 560 nm and emission wavelength of 590 nm. Untreated cells were defined as those where no leakage was observed while 100% leakage was defined as a total release of LDH due to cell lysis in 0.2% Triton X-100.

mice red blood cells = settings: mouse erythrocytes in PBS, 1 h at 37°C; maximum concentration of 200 µM; n = 3
Experimental: Fresh mouse blood was collected in heparin sodium-containing centrifuge tubes. Erythrocytes were separated by centrifugation at 800×g for 10 min and washed three times with phosphate buffered saline (PBS). Obtained erythrocytes were resuspended in PBS to 8 % (v/v). 100 µL of the peptide solution of various concentrations and 100 µL of the erythrocyte suspension were added to the wells of a 96-well plate. PBS and 0.2 % TritonX-100 were used as agents for 0 % and 100 % hemolysis, respectively. Plates were incubated for 1 h at 37°C and centrifuged at 1,200×g for 15 min. A total of 100 µL of each supernatant was transferred to a 96-well plate, and the release of hemoglobin was determined using a microplate reader at 490 nm.

[2] = in vitro and in vivo conditions; ref Zhang et al., 2011; cited from earlier work
Excerpt: In recent years, pH-responsive CPPs have been developed for targeted delivery based on the pH gradient between the tumor tissues and physiological environment ([Lee, Gao & Bae, 2008]; [Shi et al., 2015]; [Jiang et al., 2012]; [Fei et al., 2014]). […] The acidic tumor microenvironment mandates the development of pH-responsive CPPs for improved s ...

HeLa cells [3] = settings: 2 h incubation, MTT; for cytotoxicity: pH 6.0, 20 µM; for viability of cells: pH 7.4 and pH 6.5, different concentrations
Experimental: Cytotoxicity of all peptides against HeLa cells was evaluated using the MTT assay under varying pH conditions (pH 7.4, 6.5 and 6.0). Cells were seeded at 1 × 10^4 cells/well in 96-well plates, 24 h before treatment. After washing, cells were treated with serum-free medium, adjusted to pH 7.4, 6.5 or 6.0, and containing various concentrations of peptides. After 2 h incubation, 10 µL of MTT (5 mg/mL) was added to each well and incubated for another 4 h at 37°C. Then, the medium was removed and cells were dissolved by 150 µL dimethyl sulfoxide. Absorbance was determined using a microplate reader at 490 nm. Cell viability (%) was calculated using the following equation: Atest∕Acontrol × 100%, where Atest and Acontrol represent the absorbance of cells treated with different test solutions and blank culture media, respectively.

[4] = RP-HPLC retention time on C18 column (hydrophobicity); assay type: physicochemical; settings: for RP-HPLC retention times: analytical RP-HPLC, C18, sunfire column 3.9 mm × 150 mm, Waters, used as measure of hydrophobicity
Experimental: All peptides shown in Table 1 were synthesized on a MBHA (0.43mmol/g) resin using the standard Fmoc-chemistry-based strategy. Fluorescein moiety (FITC) was attached to the N-terminusvia an aminohexanoic acid spacer by treating the resin-bound peptide (0.1 mmol) with FITC (0.1 mmol) and diisopropyl ethyl amine (0.5 mmol) in DMF for 12 h. All crude peptides were purified and analyzed by reversed-phase high performance liquid chromatography (RP-HPLC) on a C18 column, and then characterized by electrospray ionization mass spectrometry (ESI-MS).
Generally, cationic CPPs can bind on the anionic membrane surfaces via electrostatic interaction and promote cellular uptake ([Poon & Gariepy, 2007]). Thus, cationic functionalityis a critical factor for cell penetration. Histidine is especially pH-responsive ([Zaro, Fei & Shen, 2012]; [Ouahab et al., 2014]). Due to the presence of an imidazole ring, it has the ability to receive protons and protonate into a positive charge in an acidic tumor environment, whereas it remains predominantly uncharged under normal physiological conditions. The pH-responsiveness of histidine has been widely utilizedin the design of pH-responsive CPPs for targeted drug delivery. The protonation ability of histidine’simidazole moiety is the key for pH-dependent cellular uptake of histidine-rich peptides. […] In this regard, this study focused on the development of new histidine analogs that enhance the protonation of histidine by introducing alkylated groups with different electron-donating ability.

HeLa cells [5] = assay: Confocal laser scanning microscopy of FITC-labeled peptides; assay type: cell-based; settings: CLSM, 5 µM FITC-labeled peptide, 1 h, 37°C; for pH-responsiveness of cellular uptake: pH 7.4, 6.5, 6.0
Experimental: To obtain a direct insight into the distribution of FITC-labeled peptides in cells, HeLa cells (6 × 10^4 cells/well) were plated in a glass-bottom culture dish for 24 h and then incubated with the FITC-labeled peptides using conditions and concentrations described above. After 1 h incubation at 37°C, the cells were washed with cold PBS three times and imaged using confocal laser scanning microscopy.

HeLa cells [6] = assay: Quantitative cellular uptake assay (flow cytometry) of FITC-labeled peptides; assay type: cell-based; settings: 1 h; for pH-responsive effect (change of fluorescence from pH 7.4 to pH 6.0) relative to TH / fluorescence intensity / cellular uptake relative to TH: 5 µM FITC-labeled peptide; for fluorescence intensity / cellular uptake relative to TH: all pH values (7.4, 6.5, 6.0)
Experimental: The cells were harvested and centrifuged at 1,000 rpm for 5 min. Subsequently, the cell pellet was suspended and washed twice with PBS and resuspended in PBS. Finally, fluorescence intensity of 10,000 cells was analyzed with an FACS caliber flow cytometer using 488-nm laser excitation.

[7] = parameters: method as in Zaro, Fei & Shen, 2012; Ouahab et al., 2014; settings: ref Zaro, Fei & Shen, 2012; Ouahab et al., 2014; cited from earlier work
Excerpt: However, due to the imidazole on histidine with a pKa around 6.5, histidine could protonate into a net positive charge at pH values below 6.5 ([Zaro, Fei & Shen, 2012]; [Ouahab et al., 2014]), thereby activating the membrane penetrating activity of TH and allowing its entry into the cells. However, histidine becomes relatively insensitive to the tumor extracellular environment when the pH is in the 6.5–7.2 range, thereby reducing the pH-dependent penetrating activity of TH. In order to extend the applications of acid-activated CPPs, it is necessary to improve their pH-response. The ability of ...

Compound | LDH levels with decreasing pH (HeLa cells [1]) | cytotoxicity (HeLa cells [3]) | viability of cells (HeLa cells [3]) | RP-HPLC retention times [4] [min] | pH-responsiveness of cellular uptake (HeLa cells [5]) | pH-responsive effect (change of fluorescence from pH 7.4 to pH 6.0) relative to TH (HeLa cells [6]) | LDH levels at pH 6.5 and pH 6.0 relative to pH 7.4 (HeLa cells [1]) | cytotoxic variation from pH 7.4 to pH 6.0 (HeLa cells [3]) | fluorescence intensity / cellular uptake relative to TH (HeLa cells [6]) | also measured
CC[C@H](C)[C@H](NC(=O)[C@H](Cc1c[nH]cn1)NC(=O)[C@H](Cc1c[nH]cn1)NC(=O)C(C)(C)NC(=O)[C@H](CC(C)C)NC(=O)[C@H](Cc1c[nH]cn1)NC(=O)[C@H](C)NC(=O)[C@H](CC(C)C)NC(=O)[C@H](Cc1c[nH]cn1)NC(=O)[C@H](Cc1c[nH]cn1)NC(=O)[C@H](CC(C)C)NC(=O)[C@H](CC(N)=O)NC(=O)[C@@H](NC(=O)[C@H](Cc1c[nH]cn1)NC(=O)CNC(=O)[C@H](CC(C)C)NC(=O)[C@H](CC(C)C)NC(=O)[C@H](Cc1ccc(O)cc1)NC(=O)CNC(=O)[C@H](C)N)[C@@H](C)CC)C(=O)N[C@@H](CC(C)C)C(N)=O [TH] (H-AGYLLGHINLHHLAHL[Aib]HHIL-NH2) | rose as the pH value decreased | increased | higher than 80% | – | – | – | – | – | – | hemolytic activity (cytotoxicity against red blood cells) (mice red blood cells): little cytotoxicity against red blood cells; toxicity compared to TK [2]: decreased
AGYLLGHEINLHEHELAHEL(Aib)HEHEIL-NH2 [Ethyl-TH, TH analog with all histidines replaced by L-his(Ethyl)] | rose as the pH value decreased | increased | higher than 80% | 18.623 | better pH-dependent cellular uptake than TH at pH 6.0 | better than TH | – | – | – | LDH release in comparison with TH and the other analogs (HeLa cells [1]; pH 6.0): most obvious LDH release; fluorescence intensity relative to TH (HeLa cells [6]; pH 7.4 and 6.5, 5 µM FITC-labeled peptide): lower fluorescence intensity than TH
N[C@@H](Cc1c[nH]cn1)C(=O)O [histidine] | – | – | – | – | – | – | – | – | – | pKa of the imidazole on histidine [7]: around 6.5
AGYLLGHBINLHBHBLAHBL(Aib)HBHBIL-NH2 [Butyl-TH, TH analog with all histidines replaced by L-his(Butyl)] | – | – | – | 20.561 | more pH-responsive at pH 6.5 | – | comparable to that at pH 7.4 | didn’t show obvious cytotoxic variation | increased remarkably | fluorescence intensity, fold higher than TH (HeLa cells [6]; pH 6.5, 5 µM FITC-labeled peptide, serum-free medium): approximately 1.72 fold
AGYLLGHMINLHMHMLAHML(Aib)HMHMIL-NH2 [Methyl-TH, TH analog with all histidines replaced by L-his(Methyl)] | – | – | – | 18.058 | poor pH-responsiveness | – | comparable to that at pH 7.4 | – | reduction of cellular uptake | hydrophobicity relative to TH ([4]; from retention time on the C18 reverse-phase HPLC column): less hydrophobic than TH; cytotoxicity at low pH (HeLa cells [3]; pH 6.5 and pH 6.0): didn’t show any significant cytotoxicity; cellular uptake relative to TH (HeLa cells [5]; pH 6.5 and pH 6.0): lower cellular uptake than TH
AGYLLGHIINLHIHILAHIL(Aib)HIHIIL-NH2 [Isopropyl-TH, TH analog with all histidines replaced by L-his(Isopropyl)] | – | – | – | 19.041 | no pH-responsive at pH 6.5 | lower than that of TH | comparable to that at pH 7.4 | didn’t show obvious cytotoxic variation | – | fluorescence intensity at pH 6.5 relative to pH 7.4 (HeLa cells [5]): slightly lower than that at pH 7.4
